The values that follow come from patent publication US9045461B2, “Phenyl-heteroaryl derivatives and methods of use thereof” (TransTech Pharma, LLC, priority 2010, dated 2015).

One may read the IC50 as the concentration that gives 50% inhibition.

Counter-ions that a name gives are not always drawn.

Assay [1] addresses T1, sRAGE binding to β-amyloid (Homo sapiens, UniProt Q15109).
T1 construct: extracellular domain can be isolated by proteolysis of RAGE to generate soluble RAGE (sRAGE) comprised of the V and C domains
The experiment in a line: RAGE binding assay (ELISA), β-amyloid as the RAGE ligand. To be noted: compounds tested in hydrochloride salt form, concentration at which 50% signal has been inhibited. A digest of the protocol: (§1)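 Ligand (500 ng/well) coated in carbonate buffer pH 9.8 overnight at 4° C and blocked with 1% BSA; test compound (10-100 μM in water, 4% DMSO co-solvent) incubated with sRAGE (6 nM FAC) 1 h at 37° C. Bound sRAGE detected by anti-sRAGE/biotin-anti-mouse/AP-streptavidin with pNPP, A405. IC50 = 50% signal inhibition.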

Assay [2] concerns the target T2, sRAGE binding to S100b (Homo sapiens, UniProt Q15109).
T2 construct: extracellular domain can be isolated by proteolysis of RAGE to generate soluble RAGE (sRAGE) comprised of the V and C domains
Briefly: RAGE binding assay (ELISA), S100b as the RAGE ligand. To be noted: compounds tested in hydrochloride salt form, concentration at which 50% signal has been inhibited. In outline:
as §1
Background: ELISA stands for enzyme-linked immunosorbent assay.

T1 sequence (Q15109 23-342 limits assumed): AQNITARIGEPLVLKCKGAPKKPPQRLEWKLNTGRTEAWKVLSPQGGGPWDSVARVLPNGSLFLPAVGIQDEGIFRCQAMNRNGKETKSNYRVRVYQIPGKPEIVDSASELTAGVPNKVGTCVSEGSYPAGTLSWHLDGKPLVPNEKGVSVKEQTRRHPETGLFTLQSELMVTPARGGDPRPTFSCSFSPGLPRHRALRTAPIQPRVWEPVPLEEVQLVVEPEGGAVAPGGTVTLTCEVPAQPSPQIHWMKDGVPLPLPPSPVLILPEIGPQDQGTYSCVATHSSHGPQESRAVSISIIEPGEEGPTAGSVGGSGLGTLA
T2 sequence (Q15109 23-342 limits assumed): as above

Consider `CCCCc1nnc(C(=O)NC2CCN(C)CC2)cc1-c1ccc(OC2CCCCC2)cc1` [Example 84, 6-Butyl-5-(4-cyclohexyloxy-phenyl)-pyridazine-3-carboxylic acid (1-methyl-piperidin-4-yl)-amide dihydrochloride], for which the IC50 in assay [1] was 1960 nM; in assay [2], 1560 nM.
Regarding `CCCCc1nnc(OCC2CN(C)C2)cc1-c1ccc(OCc2ccccc2)cc1` [Example 9, 4-(4-Benzyloxy-phenyl)-3-butyl-6-(1-methyl-azetidin-3-ylmethoxy)-pyridazine dihydrochloride], the IC50 in assay [1] is 3140 nM; in assay [2], 2700 nM.
For `CCCCc1nnc(C(=O)N[C@@H]2CN3CCC2CC3)cc1-c1ccc(OC2CCCCC2)cc1` [Example 85, (S)-6-Butyl-5-(4-cyclohexyloxy-phenyl)-pyridazine-3-carboxylic acid (1-aza-bicyclo[2.2.2]oct-3-yl)-amide dihydrochloride] the same measures were 1970 nM and 1490 nM.
For `CCCCc1nnc(C(=O)NCCN2CCC(O)CC2)cc1-c1ccc(OC2CCCCC2)cc1` [Example 93, 6-Butyl-5-(4-cyclohexyloxy-phenyl)-pyridazine-3-carboxylic acid [2-(4-hydroxy-piperidin-1-yl)-ethyl]-amide dihydrochloride] the same measures were 2510 nM and 1690 nM.
For `CCCCc1nnc(OCC[C@@H]2CCCCN2C)cc1-c1ccc(OC2CCCCC2)cc1` [Example 33, 3-butyl-4-(4-cyclohexyloxy-phenyl)-6-[2-((S)-1-methyl-piperidin-2-yl)-ethoxy]-pyridazine dihydrochloride] the same measures were 1480 nM and 2630 nM.
Take `CCCCc1nnc(C(=O)N[C@@H]2CCN(C)C[C@@H]2OC)cc1-c1ccc(OC2CCCCC2)cc1` (stereo in doubt) [Example 107, 6-Butyl-5-(4-cyclohexyloxy-phenyl)-pyridazine-3-carboxylic acid (3-methoxy-1-methyl-piperidin-4-yl)-amide dihydrochloride]: the IC50 stood at 560 nM in assay [1] and 970 nM in assay [2].
The matching figures for `CCCCc1nnc(OC[C@H]2CCN(C)C[C@@H]2O)cc1-c1ccc(OC2CCCCC2)cc1` (racemic) [Example 25, (±)-trans-4-[6-Butyl-5-(4-cyclohexyloxy-phenyl)-pyridazin-3-yloxymethyl]-1-methyl-piperidin-3-ol dihydrochloride]: 1540 nM and 1370 nM.
`CCCCc1nnc(C(=O)N[C@@H]2CN3CCC2CC3)cc1-c1ccc(OCc2ccccc2)cc1` [Example 82, 5-(4-Benzyloxy-phenyl)-6-butyl-pyridazine-3-carboxylic acid (S)-(1-aza-bicyclo[2.2.2]oct-3-yl)-amide dihydrochloride]: the IC50 in assay [1] came to 1290 nM; in assay [2] it was 1270 nM.
`CCCCc1nnc(OCCN(CC)CC)cc1-c1ccc(OCc2ccccc2)cc1` [Example 3, {2-[5-(4-Benzyloxy-phenyl)-6-butyl-pyridazin-3-yloxy]-ethyl}-diethyl-amine dihydrochloride]: the figures for the IC50 in assay [1] and in assay [2] were 2280 nM and 2490 nM, respectively.
As to `CCCCc1nnc(OC2CCN(CCC(=O)OCC)CC2)cc1-c1ccc(OC2CCCCC2)cc1` [Example 15, 3-{4-[6-Butyl-5-(4-cyclohexyloxy-phenyl)-pyridazin-3-yloxy]-piperidin-1-yl}-propionic acid ethyl ester dihydrochloride], the IC50 came to 660 nM in assay [1] and 640 nM in assay [2].
`CCCCc1nnc(OC2CCN(C)CC2)cc1-c1ccc(OC2CCCCC2)c(N(CC(C)C)C(C)=O)c1` [Example 63, N-{5-[3-butyl-6-(1-methyl-piperidin-4-yloxy)-pyridazin-4-yl]-2-cyclohexyloxy-phenyl}-N-isobutyl-acetamide dihydrochloride]: the values for the IC50 in assay [1] and in assay [2] were 680 nM and 840 nM, respectively.
The matching figures for `CCCCc1nnc(O[C@H]2CC3C[C@@H](O)C(C2)N3C)cc1-c1ccc(OC2CCCCC2)cc1` (stereo partly drawn) [Example 31, (3S,6R)-3-[6-Butyl-5-(4-cyclohexyloxy-phenyl)-pyridazin-3-yloxy]-8-methyl-8-aza-bicyclo[3.2.1]octan-6-ol dihydrochloride]: 1180 nM and 890 nM.
For `CCCCc1nnc(OC2CCN(C)CC2)cc1-c1ccc(OC2CCC(F)(F)CC2)cc1` [Example 19, 3-Butyl-4-[4-(4,4-difluoro-cyclohexyloxy)-phenyl]-6-(1-methyl-piperidin-4-yloxy)-pyridazine dihydrochloride] the same measures were 870 nM and 640 nM.
In the case of `CCCCc1nnc(OC2CCN(C)CC2)cc1-c1ccc(OCCC2CCCCC2)cc1` [Example 52, 3-butyl-4-[4-(2-cyclohexyl-ethoxy)-phenyl]-6-(1-methyl-piperidin-4-yloxy)-pyridazine dihydrochloride], the IC50 in assay [1] came to 690 nM; in assay [2], 650 nM.
For `CCCCc1nnc(OC[C@H]2CCN(C)C[C@H]2OC)cc1-c1ccc(OC2CCCCC2)cc1` (racemic) [Example 35, (±)-cis-3-Butyl-4-(4-cyclohexyloxy-phenyl)-6-(3-methoxy-1-methyl-piperidin-4-ylmethoxy)-pyridazine dihydrochloride] the same measures were 740 nM and 740 nM.
The matching figures for `CCCCc1nnc(OC[C@H]2CN(C)CC[C@@H]2OC)cc1-c1ccc(OC2CCCCC2)cc1` (racemic) [Example 46, (±)-trans-3-Butyl-4-(4-cyclohexyloxy-phenyl)-6-(4-methoxy-1-methyl-piperidin-3-ylmethoxy)-pyridazine dihydrochloride]: 1250 nM and 1350 nM.
For `CCCCc1nnc(OC2CCN(C)CC2)cc1-c1ccc(OC2CCCCC2)c(NC(C)=O)c1` [Example 62, N-{5-[3-butyl-6-(1-methyl-piperidin-4-yloxy)-pyridazin-4-yl]-2-cyclohexyloxy-phenyl}-acetamide dihydrochloride] the same measures were 5000 nM and 3630 nM.
Consider `CCCCc1nnc(OCC2(F)CCN(C)CC2)cc1-c1ccc(OC2CCCCC2)cc1` [Example 45, 3-Butyl-4-(4-cyclohexyloxy-phenyl)-6-(4-fluoro-1-methyl-piperidin-4-ylmethoxy)-pyridazine dihydrochloride], for which the IC50 in assay [1] stood at 500 nM; in assay [2] it was 1150 nM.
The matching figures for `CCCCc1nnc(OC2CCN(C)CC2)cc1-c1ccc(OC2CCCCC2)c(-c2nnn(C)n2)c1` [Example 79, 3-Butyl-4-[4-cyclohexyloxy-3-(2-methyl-2H-tetrazol-5-yl)-phenyl]-6-(1-methyl-piperidin-4-yloxy)-pyridazine dihydrochloride]: 1490 nM and 1470 nM.
The matching figures for `CCCCc1nnc(OC2CCN(C)CC2)cc1-c1ccc(OC2CCCCC2)c(-c2cnn(C)c2)c1` [Example 69, 3-Butyl-4-[4-cyclohexyloxy-3-(1-methyl-1H-pyrazol-4-yl)-phenyl]-6-(1-methyl-piperidin-4-yloxy)-pyridazine dihydrochloride]: 790 nM and 730 nM.
The matching figures for `CCCCc1nnc(OC2CCN(C)CC2)c(C(F)(F)F)c1-c1ccc(OC2CCCCC2)cc1` [Example 58, 3-butyl-4-(4-cyclohexyloxy-phenyl)-6-(1-methyl-piperidin-4-yloxy)-5-trifluoromethyl-pyridazine dihydrochloride]: 760 nM and 740 nM.
With `CCCCc1nnc(OC2CN3CCC2CC3)cc1-c1ccc(OC2CCCCC2)cc1` (stereo not drawn) [Example 26, 3-[6-Butyl-5-(4-cyclohexyloxy-phenyl)-pyridazin-3-yloxy]-1-azabicyclo[2.2.2]octane dihydrochloride], the IC50 turned out to be 1900 nM in assay [1] and 2080 nM in assay [2].
The matching figures for `CCCCc1nnc(OC[C@H]2CCN(C)C[C@H]2O)cc1-c1ccc(OC2CCCCC2)cc1` (racemic) [Example 24, (±)-cis-4-[6-Butyl-5-(4-cyclohexyloxy-phenyl)-pyridazin-3-yloxymethyl]-1-methyl-piperidin-3-ol dihydrochloride]: 2900 nM and 2640 nM.
For `CCCCc1nnc(OC2CCN(CCC3OCCCO3)CC2)cc1-c1ccc(OC2CCCCC2)cc1` [Example 18, 3-Butyl-4-(4-cyclohexyloxy-phenyl)-6-[1-(2-[1,3]dioxan-2-yl-ethyl)-piperidin-4-yloxy]-pyridazine dihydrochloride] the same measures were 600 nM and 830 nM.
For the compound `CCCCc1nnc(OC[C@H]2CN(C)CC[C@H]2OC)cc1-c1ccc(OC2CCCCC2)cc1` (racemic) [Example 44, (±)-cis-3-Butyl-4-(4-cyclohexyloxy-phenyl)-6-(4-methoxy-1-methyl-piperidin-3-ylmethoxy)-pyridazine dihydrochloride], the IC50 was determined as 320 nM in assay [1] and 480 nM in assay [2].
The matching figures for `CCCCc1nnc(OC2CCN(C)CC2)cc1-c1ccc(OCc2ccc(Cl)cc2)cc1` [Example 50, 3-butyl-4-[4-(4-chloro-benzyloxy)-phenyl]-6-(1-methyl-piperidin-4-yloxy)-pyridazine dihydrochloride]: 1960 nM and 1420 nM.
The matching figures for `CCCCc1nnc(OC2CCN(C)CC2)cc1-c1ccc(OC2CCCCC2)c(-c2cnoc2)c1` [Example 72, 3-Butyl-4-(4-cyclohexyloxy-3-isoxazol-4-yl-phenyl)-6-(1-methyl-piperidin-4-yloxy)-pyridazine dihydrochloride]: 1200 nM and 1690 nM.
